Test results as given in ChEMBL document CHEMBL1141818, “Annonaceous acetogenins: recent progress” (J Nat Prod, 1999).
Converted amounts (≈) assume the structure as drawn. Each block holds one molecule with its values, some of them ahead of it.

Legend:
[1] = system: PC-3; experiment: Cytotoxicity against human PC-3 cells; assay type: functional; details: for EC50: Homo sapiens, PC-3, read-out: ED50 (the source's name)
[2] = system: MIA PaCa-2; experiment: Cytotoxicity against human MIA PaCa2 cells; assay type: functional; details: for EC50: Homo sapiens, MIA PaCa-2, read-out: ED50 (the source's name)
[3] = system: Artemia; experiment: Toxicity in brine shrimp; assay type: organism-based; details: in vivo
[4] = system: A549; experiment: Cytotoxicity against human A549 cells; assay type: functional; details: for EC50: Homo sapiens, A549, read-out: ED50 (the source's name)
[5] = system: MCF7; experiment: Cytotoxicity against human MCF7 cells; assay type: functional; details: for EC50: Homo sapiens, MCF7, read-out: ED50 (the source's name)
[6] = system: HT-29; experiment: Cytotoxicity against human HT-29 cells; assay type: functional; details: for EC50: Homo sapiens, HT-29, read-out: ED50 (the source's name)
[7] = system: A498; experiment: Cytotoxicity against human A-498 cells; assay type: functional; details: for EC50: Homo sapiens, A498, read-out: ED50 (the source's name)
[8] = Cytotoxicity against human Hep2.2.15 cells; assay type: functional; details: HepG2 2.2.15, read-out: ED50 (the source's name)
[9] = Cytotoxicity against human Hep G2 cells; assay type: functional; details: HepG2, read-out: ED50 (the source's name)
[10] = Cytotoxicity against human CCM2 cells; assay type: functional; details: read-out: ED50 (the source's name)
[11] = system: RPMI-7951; experiment: Cytotoxicity against human RPMI-7951 cells; assay type: functional; details: read-out: ED50 (the source's name)
[12] = system: U-251; experiment: Cytotoxicity against human U251 cells; assay type: functional, cell-based
[13] = system: X5563; experiment: Cytotoxicity against human X5563 cells; assay type: functional
[14] = system: Blattella germanica; experiment: Ratio of LT50 for Blattella germanica Muncie second instars to LT50 for Blattella germanica Jwax second instars; assay type: functional
[15] = system: Blattella germanica; experiment: Ratio of LT50 for Blattella germanica Muncie fifth instars to LT50 for Blattella germanica Jwax fifth instars; assay type: functional
[16] = system: Aedes aegypti; experiment: Insecticidal activity against yellow fever mosquito; assay type: functional
[17] = system: MCF7; experiment: Cytotoxicity against human wild type MCF7 cells at 1 ug/ml; assay type: functional
[18] = system: KB; experiment: Cytotoxicity against human KB cells; assay type: functional, cell-based; details: for IC50: Homo sapiens, KB
[19] = system: HCT-8; experiment: Cytotoxicity against human HCT8 cells; assay type: functional, cell-based
[20] = system: Bel-7402; experiment: Cytotoxicity against human Bel-7402 cells; assay type: functional, cell-based
[21] = Inhibition of NADH oxidase
[22] = system: HL-60; experiment: Cytotoxicity against human HL-60 cells; assay type: functional, cell-based
[23] = system: A2780; experiment: Cytotoxicity against human A2780 cells; assay type: functional, cell-based

SMILES: CCCCCCCCCC[C@@H](O)[C@H]1CC[C@@H]([C@H]2CC[C@H]([C@H](O)CCCCCCCCCC[C@@H]3CC(CC(C)=O)C(=O)O3)O2)O1 (mixture of isomers)
EC50 [1]: 2.8 µg/mL | EC50 [2]: 0.069 µg/mL | LC50 [3]: 2 ×10⁻² ug/ml | ED50 [4]: 4.6 ×10⁻⁴ ug/ml | ED50 [5]: 1.3 ×10⁻⁸ ug/ml | EC50 [6]: 1.6 µg/mL | EC50 [7]: 0.49 µg/mL

SMILES: CCCCCCCCCC[C@H](O)[C@H]1CC[C@H]([C@H](O)CCCCCC(O)CCCCCCC2CC(CC(C)=O)C(=O)O2)O1 (mixture of isomers)
EC50 [1]: 2.24 µg/mL | EC50 [2]: 0.0095 µg/mL | LC50 [3]: 9.7 ×10⁻² ug/ml | EC50 [4]: 0.21 µg/mL | EC50 [5]: 0.0011 µg/mL | EC50 [6]: 0.35 µg/mL | EC50 [7]: 0.0067 µg/mL

SMILES: CCCCCCCCCCCC[C@@H](O)[C@H]1CC[C@H]([C@H](O)CC/C=C\CCCCCC[C@@H]2CC(CC(C)=O)C(=O)O2)O1 (mixture of isomers)
EC50 [8]: 0.14 µg/mL | EC50 [9]: 0.047 µg/mL | EC50 [10]: 0.085 µg/mL

SMILES: CCCCCCCCCCCC[C@H](O)[C@H]1CC[C@H]([C@H](O)CCCCCC(O)CCCCCCC2CC(CC(C)=O)C(=O)O2)O1 (mixture of isomers) [(2,4-CIS/TRANS)-SQUAMOXINE B]
EC50 [1]: 0.05 µg/mL | ED50 [2]: 8.3 ×10⁻⁴ ug/ml | LC50 [3]: 4.6 ×10⁻² ug/ml | EC50 [4]: 0.0038 µg/mL | EC50 [5]: 0.0014 µg/mL | EC50 [6]: 0.0027 µg/mL | EC50 [7]: 0.004 µg/mL

SMILES: CCCCCCCCCC[C@H](O)[C@H]1CC[C@H]([C@H]2CC[C@H]([C@H](O)CCCCCCCCCC[C@@H]3CC(CC(C)=O)C(=O)O3)O2)O1 (mixture of isomers) [BULLATACINONE]
EC50 [1]: 2.6 µg/mL | EC50 [2]: 1.1 µg/mL | LC50 [3]: 7.4 ×10⁻² ug/ml | EC50 [4]: 1.9 µg/mL | EC50 [5]: 1.8 µg/mL | EC50 [6]: 1.7 µg/mL | EC50 [7]: 1.8 µg/mL

SMILES: CCCCCCCCCC[C@H](O)[C@@H](O)CCCC[C@H]1CC[C@H]([C@H]2CC[C@H]([C@H](O)CCCCC[C@@H](O)CC3=C[C@H](C)OC3=O)O2)O1 (stereo in doubt) [GLACIN B]
ED50 [1]: 1.2 µg/mL (≈ 1.88 µM) | ED50 [2]: 2.8 ×10⁻¹ ug/ml | LC50 [3]: 3.1 ×10⁻¹ ug/ml | ED50 [4]: 1.6 ×10⁻¹ ug/ml | ED50 [5]: 1.8 ×10⁻³ ug/ml | ED50 [6]: 1.9 ×10⁻² ug/ml | ED50 [7]: 1.4 µg/mL (≈ 2.19 µM)

SMILES: CCCCCCCCCC[C@H](O)[C@@H]1CC[C@@H]([C@@H]2CC[C@@H]([C@@H](O)CCC(O)CCCCCCCCC[C@@H](O)CC3=C[C@H](C)OC3=O)O2)O1 (some centres not stated) [ARTICULIN]
EC50 [1]: 1.9 µg/mL (≈ 2.85 µM) | EC50 [2]: 1 µg/mL (≈ 1.5 µM) | EC50 [4]: 0.006 µg/mL (≈ 0.009 µM) | EC50 [5]: 0.004 µg/mL (≈ 0.006 µM) | EC50 [6]: 0.6 µg/mL (≈ 0.9 µM) | EC50 [11]: 0.01 µg/mL (≈ 0.015 µM) | EC50 ([12]; read-out: ED50 (the source's name)): 0.01 µg/mL (≈ 0.015 µM)

SMILES: CCCCCCCCCC[C@@H](O)[C@H]1CC[C@H]([C@H]2CC[C@H]([C@H](O)CCCCCCCC[C@@H](O)CCCC3=C[C@H](C)OC3=O)O2)O1 [BULLACIN]
EC50 [1]: > 1 µg/mL | EC50 [2]: 0.41 µg/mL (≈ 0.658 µM) | LC50 [3]: 1.9 ×10⁻² ug/ml | ED50 [4]: 9 ×10⁻⁷ ug/ml | ED50 [5]: 2.5 ×10⁻⁷ ug/ml | EC50 [6]: 0.0045 µg/mL (≈ 0.00722 µM) | EC50 [7]: > 1 µg/mL

SMILES: CCCCCCCCCC[C@H](O)[C@H]1CC[C@H]([C@H](O)CC[C@H](O)[C@@H]2CC[C@@H](CCCCCCC[C@@H](O)CC3=C[C@H](C)OC3=O)O2)O1 [BULLATALICIN]
Activity [13]: 67% | Ratio [14]: 0.9 | Ratio [15]: 1.8 | LC50 [16]: 0.1 µg/mL (≈ 0.157 µM)

SMILES: CCCCCCC(O)CCC[C@H](O)[C@@H]1CC[C@@H]([C@@H]2CC[C@H]([C@H](O)CCCCCCCCCCC3=C[C@H](C)OC3=O)O2)O1 (some centres not stated) [CAROLIN C]
Activity [17]: 50% | ED50 [18]: 2 ×10⁻⁴ ug/ml

SMILES: CCCCCCCCCCCC[C@@H](O)[C@H]1CC[C@H]([C@H](O)CCCC[C@H](O)CCCCC[C@H](CC2=C[C@@](C)(O)OC2=O)OC(C)=O)O1 [DONNAIENIN C]
IC50 [18]: > 10 µg/mL | IC50 [19]: > 10 µg/mL | IC50 [20]: 7.1 µg/mL (≈ 10.8 µM)

SMILES: CCCCCCCCCCCC[C@@H](O)[C@H](O)CC[C@@H](O)[C@H](O)CCCC[C@H](O)CCCCC[C@H](CC1=C[C@@](C)(O)OC1=O)OC(C)=O [DONNAIENIN D]
IC50 [18]: > 10 µg/mL | IC50 [19]: > 10 µg/mL | IC50 [20]: > 10 µg/mL

SMILES: CCCCCCCCCCCCCC[C@H](O)[C@@H]1C[C@@H](O)[C@@H]([C@@H](O)CC[C@@H](O)CCCCC[C@@H](O)CC2=C[C@H](C)OC2=O)O1 [DONNAIENIN]
IC50 [18]: > 10 µg/mL | IC50 [19]: 6.6 µg/mL (≈ 10.8 µM) | IC50 [20]: 6.7 µg/mL (≈ 10.9 µM)

SMILES: CCCCCCCCCCCC[C@H](O)[C@H](O)CC[C@H](O)[C@@H]1CC[C@@H](C[C@H](O)CCCCC[C@@H](O)CC2=C[C@@](C)(O)OC2=O)O1 [GARDNERININ]
IC50 [18]: > 10 µg/mL | IC50 [19]: 6.6 µg/mL (≈ 10.5 µM) | IC50 [20]: > 10 µg/mL

SMILES: CCCCCCCCCC[C@@H](O)[C@@H]1CC[C@@H]([C@@H]2CC[C@@H]([C@@H](O)CCCCC(=O)CCCCCCCC3=C[C@H](C)OC3=O)O2)O1 [GUANACONNE]
IC50 [12]: 1.5 nM

IC50 [21]: 0.3 nM
SMILES: CCCCCCCCCC[C@@H](O)[C@@H]1CC[C@H]([C@H]2CC[C@@H]([C@@H](O)CCCCCCCCCCC3=C[C@H](C)OC3=O)O2)O1 [MEMBRAROLLIN]

SMILES: CCCCC[C@H](O)CCCC[C@H](O)[C@H]1CC[C@H]([C@H]2CC[C@H]([C@H](O)CCCC[C@H](O)CCCCCCCC3=C[C@H](C)OC3=O)O2)O1 [PURPURENIN]
EC50 [1]: 1.1 µg/mL (≈ 1.72 µM) | EC50 [2]: 2 µg/mL (≈ 3.13 µM) | LC50 [3]: 2.9 ×10⁻² ug/ml | EC50 [4]: 1.3 µg/mL (≈ 2.03 µM) | EC50 [5]: 1.7 µg/mL (≈ 2.66 µM) | EC50 [6]: 0.32 µg/mL (≈ 0.501 µM) | EC50 [7]: 1.3 µg/mL (≈ 2.03 µM)

SMILES: CCCCCCCCCC[C@H](O)[C@@H]1CC[C@H]([C@H]2CC[C@@H]([C@H](O)CCCCCCCC[C@@H](O)CC3=C[C@H](C)OC3=O)O2)O1 [ROLLIMEMBRIN]
IC50 [21]: 0.33 nM

SMILES: CCCCCCCCCCCCCCCC[C@@H](O)[C@H](O)CCCCCCCCCCCCCCC1=C[C@H](C)OC1=O [TONKINELIN]
IC50 [18]: > 10 µg/mL | IC50 [19]: 6.7 µg/mL (≈ 11.6 µM) | IC50 [22]: 1 µg/mL (≈ 1.73 µM) | IC50 [23]: > 10 µg/mL

SMILES: CCCCCCCCCCCC[C@H](O)[C@H]1CC[C@H]([C@H](O)CC(O)CCCCCCCCCC(=O)CCC2=C[C@H](C)OC2=O)O1 (some centres not stated) [TONKININ A]
IC50 [18]: > 10 µg/mL | IC50 [19]: 0.59 µg/mL (≈ 0.947 µM) | IC50 [22]: 0.016 µg/mL (≈ 0.0257 µM) | IC50 [23]: > 10 µg/mL

SMILES: CCCCCCCCCCCC[C@@H](O)[C@H]1CC[C@H]([C@H](O)CC(O)CCCCCCCCCC(=O)CCC2=C[C@H](C)OC2=O)O1 (some centres not stated) [TONKININ B]
IC50 [18]: > 10 µg/mL | IC50 [19]: 2.4 µg/mL (≈ 3.85 µM) | IC50 [22]: 0.06 µg/mL (≈ 0.0963 µM) | IC50 [23]: > 10 µg/mL

SMILES: CCCCCCCCCCCCCC[C@H](O)[C@H]1CC[C@H]([C@@H](CC(O)CCCCCCCCCCC2=C[C@H](C)OC2=O)OC(C)=O)O1 (some centres not stated) [TONKININ C]
IC50 [18]: > 10 µg/mL | IC50 [19]: 0.86 µg/mL (≈ 1.32 µM) | IC50 [22]: 0.00042 µg/mL (≈ 0.000645 µM) | IC50 [23]: > 10 µg/mL

SMILES: CCCCCCCCCC[C@@H](O)[C@H]1CC[C@@H]([C@H]2CC[C@H]([C@H](O)CCC[C@H](O)CCCCCCCC3=C[C@H](C)OC3=O)O2)O1 [TRILOBIN]
LC50 [16]: 0.67 µg/mL (≈ 1.1 µM)
